*: point of attachment. NHNH2 = NN*
Columns and labels:
Format in all cases: cell-based
A549 cells = test: RLuc pDNA delivery, robotic library screening, A549
Method in brief: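 A549 cells in DMEM+10% FBS were washed twice with PBS and exposed for 4 h to amphiphile/RLuc pDNA complexes prepared from DMSO stocks diluted in DMEM. After medium replacement and 72 hours, cells in HBSS were incubated at 37° C. for 30 minutes, basal then total luminescence measured after 5 μM coelenterazine h; background from untransfected cells was subtracted.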

HepG2 cells [1] = test: RLuc pDNA delivery, robotic library screening, HepG2
Method in brief: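 After the 4 h exposure the complexes were replaced with fresh DMEM plus 10% FBS. At 72 hours cells were washed with HBSS, kept 30 minutes at 37° C. for basal readings, then given coelenterazine h (5 μM final) for 10 minutes before total luminescence was read. Triplicate means had untransfected background subtracted and were also expressed relative to Lipofectamine® 2000 set at 1.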

Hek293 cells [2] = test: RLuc pDNA delivery, robotic library screening, Hek293
Hek293 cells [3] = test: EGFP mRNA delivery, robotic library screening, Hek293
Protocol: Cells were seeded in a 96 well plate the day before the experiment at a concentration of 50,000 cell/mL (100 μL/w) in DMEM+10% FBS+1% Gln-Abt. For robotic library screening, the delivery of EGFP-mRNA (from TriLink, fully substituted with 5-methoxyuridine, capped and polyadenylated; TriLink, CleanCap® EGFP mRNA (5moU), ref. L-7201) in six different cell lines was performed. Amphiphilic molecule stock solutions were prepared in DMSO as described above and diluted in DMEM to afford a range of concentrations. The solutions of EGFP-mRNA/amphiphilic molecule complexes were freshly prepared prior to the transfection experiments. 35 μL of the corresponding amphiphile were added to 10 μL of a solution of EGFP-mRNA at 10 ng/μL in DMEM. The mixture was shaken for 30 min at room temperature before the addition to the cells. The cell medium was aspirated, and cells were washed with PBS twice. Cells were covered with 39 μL of DMEM and 11 μL of the complex's solution were added to the cells and incubated for 4 h (final concentration of peptide=2.5, 5 and 10 μM; final concentration of EGFP-mRNA=25 ng/well). After the incubation, the medium was replaced by 100 μL of fresh DMEM supplemented with 10% FBS. The total EGFP fluorescence was quantified after 72 h in a well plate reader. Amphiphile transfection efficiency was compared and normalized to Lipofectamine® MessengerMax efficiency (value of 1 in Tables 1-5 and 7; double underlined numbers). All experiments were done in triplicate.
Tables 1-7: RLuc (pDNA) or EGFP (mRNA) expression levels were normalized to Lipofectamine reagents (value=1) and expressed as fold-times signal increase. In the case of siRNA, the siRNA treated cells fluorescence was compared with siMOCK control fluorescence, while Cas9-RNP mediated knockout was measured against the fluorescence of untreated cells. In both siRNA and Cas9-RNP, values are expressed as % fluorescence reduction. Amphiphile concentration was 5 μM in all cases. All experiments were performed in triplicate.
Tables 14-19 show the mean (triplicates) fluorescence intensity measured after the transfection of EGFP mRNA by different amphiphiles at different concentrations in a variety of cell lines. Background fluorescence values, accounted by untreated control cells, were subtracted for processing.

HepG2 cells [4] = test: EGFP mRNA delivery, robotic library screening, HepG2; conditions: HepG2 cells
Method in brief: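 This robotic library screen tested delivery of CleanCap EGFP mRNA (5moU) into HepG2 cells using amphiphilic molecules. Complexes were freshly prepared at room temperature and added to the cells, and the medium was then replaced with fresh DMEM plus 10% FBS. Total EGFP fluorescence was measured in a plate reader at 72 h in triplicate, with untreated-cell background subtracted.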

Substance: Ac-RK*LRK*K*L-NH2 (Ac-RK(NHNH2)LRK(NHNH2)K(NHNH2)L-NH2; not fully specified; printed as Ac-RK*LRK*K*L-NH2; also: K*2,K*5,K*6: native or modified lysine (ε-amide to a linker)) [Peptide 7.3]
- mean luminescent intensity (RLuc pDNA) (A549 cells; Dodecanal, 5 μM): 483 RLU
- mean luminescent intensity (RLuc pDNA) (A549 cells; Dodecanal, 15 μM): 777 RLU
- mean luminescent intensity (RLuc pDNA) (A549 cells; Palmitoleyl, 10 μM): 3679 RLU
- mean luminescent intensity (RLuc pDNA) (A549 cells; Petroselinyl, 5 μM): 4314 RLU
- mean luminescent intensity (RLuc pDNA) (HepG2 cells [1]; Dodecanal, 10 μM): 4529 RLU
- mean luminescent intensity (RLuc pDNA) (HepG2 cells [1]; Dodecanal, 15 μM): 14804 RLU
- mean luminescent intensity (RLuc pDNA) (HepG2 cells [1]; Myristoleyl, 5 μM): 109155 RLU
- mean luminescent intensity (RLuc pDNA) (HepG2 cells [1]; Myristoleyl, 10 μM): 294365 RLU
- mean luminescent intensity (RLuc pDNA) (HepG2 cells [1]; Myristoleyl, 15 μM): 241385 RLU
- mean luminescent intensity (RLuc pDNA) (HepG2 cells [1]; Palmitoleyl, 5 μM): 107745 RLU
- mean luminescent intensity (RLuc pDNA) (HepG2 cells [1]; Palmitoleyl, 10 μM): 84207 RLU
- mean luminescent intensity (RLuc pDNA) (HepG2 cells [1]; Palmitoleyl, 15 μM): 46358 RLU
- mean luminescent intensity (RLuc pDNA) (HepG2 cells [1]; Petroselinyl, 5 μM): 228306 RLU
- mean luminescent intensity (RLuc pDNA) (HepG2 cells [1]; Petroselinyl, 10 μM): 150739 RLU
- mean luminescent intensity (RLuc pDNA) (HepG2 cells [1]; Petroselinyl, 15 μM): 51938 RLU
- mean luminescent intensity (RLuc pDNA) (Hek293 cells [2]; Dodecanal, 10 μM): 11481 RLU
- mean luminescent intensity (RLuc pDNA) (Hek293 cells [2]; Dodecanal, 15 μM): 13690 RLU
- mean luminescent intensity (RLuc pDNA) (Hek293 cells [2]; Myristoleyl, 5 μM): 94318 RLU
- mean luminescent intensity (RLuc pDNA) (Hek293 cells [2]; Myristoleyl, 10 μM): 179823 RLU
- mean luminescent intensity (RLuc pDNA) (Hek293 cells [2]; Palmitoleyl, 5 μM): 2088 RLU
- mean luminescent intensity (RLuc pDNA) (Hek293 cells [2]; Petroselinyl, 5 μM): 7479 RLU
- mean luminescent intensity (RLuc pDNA) (Hek293 cells [2]; Petroselinyl, 10 μM): 2932 RLU
- mean fluorescence intensity (EGFP mRNA) (Hek293 cells [3]; Dodecanal, 2.5 μM): 9114
- mean fluorescence intensity (EGFP mRNA) (Hek293 cells [3]; Dodecanal, 5 μM): 17096
- mean fluorescence intensity (EGFP mRNA) (Hek293 cells [3]; Dodecanal, 10 μM): 2056
- mean fluorescence intensity (EGFP mRNA) (Hek293 cells [3]; Myristoleyl, 2.5 μM): 11081
- mean fluorescence intensity (EGFP mRNA) (Hek293 cells [3]; Myristoleyl, 5 μM): 2907
- mean fluorescence intensity (EGFP mRNA) (Hek293 cells [3]; Myristoleyl, 10 μM): 982
- mean fluorescence intensity (EGFP mRNA) (Hek293 cells [3]; Oleyl, 2.5 μM): 3452
- mean fluorescence intensity (EGFP mRNA) (Hek293 cells [3]; Oleyl, 5 μM): 1414
- mean fluorescence intensity (EGFP mRNA) (Hek293 cells [3]; Oleyl, 10 μM): 805
- mean fluorescence intensity (EGFP mRNA) (Hek293 cells [3]; Palmitoleyl, 2.5 μM): 4120
- mean fluorescence intensity (EGFP mRNA) (Hek293 cells [3]; Petroselinyl, 2.5 μM): 9200
- mean fluorescence intensity (EGFP mRNA) (Hek293 cells [3]; Petroselinyl, 5 μM): 8731
- mean fluorescence intensity (EGFP mRNA) (Hek293 cells [3]; Petroselinyl, 10 μM): 476
- mean fluorescence intensity after transfection of EGFP mRNA (HepG2 cells [4]; Dodecanal, 5 μM): 1786
- mean fluorescence intensity after transfection of EGFP mRNA (HepG2 cells [4]; Dodecanal, 10 μM): 1477
- mean fluorescence intensity after transfection of EGFP mRNA (HepG2 cells [4]; Dodecanal, 15 μM): 952
- mean fluorescence intensity after transfection of EGFP mRNA (HepG2 cells [4]; Myristoleyl, 5 μM): 1046
- mean fluorescence intensity after transfection of EGFP mRNA (HepG2 cells [4]; Oleyl, 5 μM): 893
- mean fluorescence intensity after transfection of EGFP mRNA (HepG2 cells [4]; Palmitoleyl, 5 μM): 3286
- mean fluorescence intensity after transfection of EGFP mRNA (HepG2 cells [4]; Palmitoleyl, 10 μM): 3553
- mean fluorescence intensity after transfection of EGFP mRNA (HepG2 cells [4]; Palmitoleyl, 15 μM): 766
- mean fluorescence intensity after transfection of EGFP mRNA (HepG2 cells [4]; Petroselinyl, 5 μM): 4095
- mean fluorescence intensity after transfection of EGFP mRNA (HepG2 cells [4]; Petroselinyl, 10 μM): 188
- mean fluorescence intensity after transfection of EGFP mRNA (HepG2 cells [4]; Petroselinyl, 15 μM): 821

Substance: Ac-RK*LRRK*L-NH2 (Ac-RK(NHNH2)LRRK(NHNH2)L-NH2; not fully specified; printed as Ac-RK*LRRK*L-NH2; also: K*2,K*6: native or modified lysine (ε-amide to a linker)) [Peptide 7.2]
- mean luminescent intensity (RLuc pDNA) (A549 cells; Dodecanal, 5 μM): 302 RLU
- mean luminescent intensity (RLuc pDNA) (A549 cells; Dodecanal, 15 μM): 208 RLU
- mean luminescent intensity (RLuc pDNA) (A549 cells; Myristoleyl, 5 μM): 5449 RLU
- mean luminescent intensity (RLuc pDNA) (A549 cells; Myristoleyl, 10 μM): 5343 RLU
- mean luminescent intensity (RLuc pDNA) (A549 cells; Myristoleyl, 15 μM): 2367 RLU
- mean luminescent intensity (RLuc pDNA) (HepG2 cells [1]; Dodecanal, 10 μM): 4114 RLU
- mean luminescent intensity (RLuc pDNA) (HepG2 cells [1]; Dodecanal, 15 μM): 1202 RLU
- mean luminescent intensity (RLuc pDNA) (HepG2 cells [1]; Myristoleyl, 5 μM): 11364 RLU
- mean luminescent intensity (RLuc pDNA) (HepG2 cells [1]; Myristoleyl, 10 μM): 23772 RLU
- mean luminescent intensity (RLuc pDNA) (HepG2 cells [1]; Myristoleyl, 15 μM): 25742 RLU
- mean luminescent intensity (RLuc pDNA) (Hek293 cells [2]; Dodecanal, 10 μM): 8723 RLU
- mean luminescent intensity (RLuc pDNA) (Hek293 cells [2]; Dodecanal, 15 μM): 11358 RLU
- mean luminescent intensity (RLuc pDNA) (Hek293 cells [2]; Myristoleyl, 5 μM): 5382 RLU
- mean luminescent intensity (RLuc pDNA) (Hek293 cells [2]; Myristoleyl, 10 μM): 24464 RLU
- mean luminescent intensity (RLuc pDNA) (Hek293 cells [2]; Myristoleyl, 15 μM): 8475 RLU
- mean fluorescence intensity (EGFP mRNA) (Hek293 cells [3]; Dodecanal, 2.5 μM): 251
- mean fluorescence intensity (EGFP mRNA) (Hek293 cells [3]; Dodecanal, 5 μM): 71
- mean fluorescence intensity (EGFP mRNA) (Hek293 cells [3]; Dodecanal, 10 μM): 648
- mean fluorescence intensity (EGFP mRNA) (Hek293 cells [3]; Myristoleyl, 2.5 μM): 2550
- mean fluorescence intensity (EGFP mRNA) (Hek293 cells [3]; Myristoleyl, 5 μM): 1729
- mean fluorescence intensity (EGFP mRNA) (Hek293 cells [3]; Myristoleyl, 10 μM): 591
- mean fluorescence intensity after transfection of EGFP mRNA (HepG2 cells [4]; Dodecanal, 5 μM): 75
- mean fluorescence intensity after transfection of EGFP mRNA (HepG2 cells [4]; Dodecanal, 10 μM): −468
- mean fluorescence intensity after transfection of EGFP mRNA (HepG2 cells [4]; Dodecanal, 15 μM): 268
- mean fluorescence intensity after transfection of EGFP mRNA (HepG2 cells [4]; Myristoleyl, 5 μM): 678
- mean fluorescence intensity after transfection of EGFP mRNA (HepG2 cells [4]; Myristoleyl, 10 μM): 752
- mean fluorescence intensity after transfection of EGFP mRNA (HepG2 cells [4]; Myristoleyl, 15 μM): −60

Reference: patent publication US20250304623A1, “PEPTIDES FOR INTRACELLULAR DELIVERY” (UNIVERSIDADE DE SANTIAGO DE COMPOSTELA, priority 2022, published 2025)
